# Experiments:
# [1] = tested on: histone modifications in 2102EP cells; assay: Mass spectrometry analysis of histone modifications (Mod Spec); format: cell-based, Human
# Experimental: 2102EP cells were treated with the EC50 concentrations for Quisinostat, JIB-04, Chaetocin, MZ-1, LP99, PRT4165, GSK343 and DMSO as solvent control. The cells were harvested via trypsinization after 16 h. The mass spectrometric analysis of histone modifications was outsourced to the Mod Spec service by Active Motif (Carlsbad, CA, USA). Histone extraction and mass spectrometric analysis was performed as described previously. Raw data were transformed into z-scores as the input. The heatmap was generated in R using ‘pheatmap’ with default settings and provided by Active Motif.
# [2] = tested on: DNA methylation (5mC, 5hmC) in 2102EP cells; assay: DNA slot blot (5mC, 5hmC); format: cell-based, Human; settings: 24 h
# Experimental: Purity of DNA was verified using NanoDrop 260/280 ratio and agarose gel electrophoresis. DNA was diluted in H2O to 200 ng, 100 ng and 50 ng in 200 µl per slot. Slot-Blotter device (Carl Roth GmbH + Co KG, Karlsruhe, Germany) was assembled as according to the manual. DNA was blotted onto a positively charged nylon membrane (Carl Roth GmbH + Co KG, Karlsruhe, Germany) using vacuum application. Three identical membranes were prepared. The membranes were air-dried for 15—20 min and UV-crosslinked (20 s (s), 1200 mJ/cm^2). One membrane was stained with methylene blue (0.02% methylene blue (Merck Millipore, Darmstadt, Germany) in 0.3 M sodium acetate (pH 5.2)) to validate DNA loading across the samples. The remaining two membranes were blocked in 5% milk powder in PBST for 1 h at RT. Membranes were incubated with 5mC or 5hmC antibody overnight at 4 °C. After washing, membranes were incubated with secondary antibody for 2 h at RT. Signals were detected using the ChemiDoc Imaging Systems (Bio-Rad Laboratories, Feldkirchen, Germany).
# 2102EP-R [3] = assay: Flow cytometry apoptosis (Annexin V/PI), 2102EP-R; format: cell-based, Human; settings: EC50, 16 h, compared to the parental cell line
# 2102EP-R [4] = assay: Flow cytometry cell cycle (PI), 2102EP-R; format: cell-based, Human; settings: EC50, 16 h
# Experimental: (§1) For Annexin V/PI staining, cells were washed with Annexin V Binding Buffer before being resuspended in 70 µl Annexin V Binding Buffer and 2.5 μl Annexin V FITC-conjugate (both Miltenyi Biotec, Bergisch Gladbach, Germany) and 15 µg PI (Sigma-Aldrich, Taufkirchen, Germany) and incubated in the dark at room temperature for 15 min. 500 µl of Annexin V Binding Buffer was added before measurement. For the cell cycle analysis, cells were washed with PBS (phosphate buffered saline), fixed by ice cold 70% ethanol and stained with 2 µg/ml PI and 200 µg/ml RNaseA (Quiagen, Hilden, Germany 100 mg/ml) in PBS shortly before every measurement. At least 5 × 10^4 cells were counted and analyzed using the MACSQuant software v 2.13.0.
# GCT cells = assay: Flow cytometry cell cycle (PI), GCT cells; format: cell-based, Human; settings: EC50, 16 h
# Experimental: as §1
# [5] = tested on: transcriptome of 2102EP cells; assay: RNA sequencing; format: cell-based, Human; settings: 16 h
# Experimental: Transcriptome analysis has been performed as previously described at the core facility ‘Genomics & Transcriptomics’ (Prof. Dr. Karl Köhrer, Biomedical Research Center, Heinrich Heine University, Düsseldorf, Germany) and has been publicly shared via GEO (https://www.ncbi.nlm.nih.gov/geo/, GSE189472). RNA samples were quantified and measured as previously described. Statistical analyses were performed using the ‘Differential Expression in two groups’ tool (version 1.02) (Qiagen) and the resulting p values were corrected for multiple testing by false discovery rate (FDR). Accompanying PCA and heatmap were generated using Qlucore Omics Explorer 3.7 (Qlucore AB, Lund, Sweden). Values of solvent controls wereaveraged from the studies GSE189472, GSE190792 and GSE190022 [95].
# [6] = tested on: phosphorylated kinase targets in 2102EP cells; assay: Proteome Profiler Human Phospho-Kinase Array; format: cell-based; settings: 16 h
# Experimental: For the detection of phosphorylated kinase targets, the Proteome Profiler Human Phospho-Kinase Array Kit (R&D Systems, Abingdon, UK) was used according to the manufacturer’s instructions. The ChemiDoc Imaging System (Bio-Rad Laboratories, Feldkirchen, Germany) was used for detection. 2102EP cells were harvested after 16 h of treatment with the epi-drugs. Pixel density was analyzed using Fiji ImageJ 1.53c.
# [7] = 2102EP cells, Mod Spec raw data
compound,measurement,setting,value
Cc1ncsc1-c1ccc(CNC(=O)[C@@H]2C[C@@H](O)CN2C(=O)[C@@H](NC(=O)COCCOCCOCCNC(=O)C[C@@H]2N=C(c3ccc(Cl)cc3)c3c(sc(C)c3C)-n3c(C)nnc32)C(C)(C)C)cc1 [MZ-1],"H3: R49ME2, % of peptide pool",[1]; [7],3.092%
same,"H3: R49UN, % of peptide pool",[1]; [7],96.9084%
same,"H3R2UN: K4AC, % of peptide pool",[1]; [7],0.04633%
same,"H3R2UN: K4ME1, % of peptide pool",[1]; [7],16.637%
same,"H3R2UN: K4ME2, % of peptide pool",[1]; [7],0.2165%
same,"H3R2UN: K4ME3, % of peptide pool",[1]; [7],0.04192%
same,"H3R2UN: K4UN, % of peptide pool",[1]; [7],83.0582%
same,"H3R2UN: Q5ME1, % of peptide pool",[1]; [7],0.08148%
same,"H3R2UN: Q5UN, % of peptide pool",[1]; [7],99.9185%
same,"H3.1: K27AC, % of peptide pool",[1]; [7],2.915%
same,"H3.1: K27ME1, % of peptide pool",[1]; [7],46.4162%
same,"H3.1: K27ME2, % of peptide pool",[1]; [7],19.546%
same,"H3.1: K27ME3, % of peptide pool",[1]; [7],2.363%
same,"H3.1: K27UN, % of peptide pool",[1]; [7],28.7602%
same,"H3.1: K36AC, % of peptide pool",[1]; [7],0.09043%
same,"H3.1: K36ME1, % of peptide pool",[1]; [7],14.1558%
same,"H3.1: K36ME2, % of peptide pool",[1]; [7],48.8646%
same,"H3.1: K36ME3, % of peptide pool",[1]; [7],20.4408%
same,"H3.1: K36UN, % of peptide pool",[1]; [7],16.4484%
same,"H3.3: K27AC, % of peptide pool",[1]; [7],6.233%
same,"H3.3: K27M, % of peptide pool",[1]; [7],0%
same,"H3.3: K27ME1, % of peptide pool",[1]; [7],47.8396%
same,"H3.3: K27ME2, % of peptide pool",[1]; [7],15.5733%
same,"H3.3: K27ME3, % of peptide pool",[1]; [7],3.5424%
same,"H3.3: K27UN, % of peptide pool",[1]; [7],26.8119%
same,"H3.3: K36AC, % of peptide pool",[1]; [7],1.864%
same,"H3.3: K36ME1, % of peptide pool",[1]; [7],12.2128%
same,"H3.3: K36ME2, % of peptide pool",[1]; [7],53.2755%
same,"H3.3: K36ME3, % of peptide pool",[1]; [7],19.9611%
same,"H3.3: K36UN, % of peptide pool",[1]; [7],12.6864%
same,"H4: K5AC, % of peptide pool",[1]; [7],7.836%
same,"H4: K5UN, % of peptide pool",[1]; [7],92.164%
same,"H4: K8AC, % of peptide pool",[1]; [7],12.4074%
same,"H4: K8UN, % of peptide pool",[1]; [7],87.5926%
same,"H4: K12AC, % of peptide pool","[1]; 2102EP cells, Mod Spec raw data, histone H4 K12 acetylated",7.206 % of peptide pool
same,"H4: K12UN, % of peptide pool","[1]; 2102EP cells, Mod Spec raw data, histone H4 K12 unmodified",92.7945 % of peptide pool
same,"H4: K16AC, % of peptide pool","[1]; 2102EP cells, Mod Spec raw data, histone H4 K16 acetylated",49.1827 % of peptide pool
same,"H4: K16UN, % of peptide pool","[1]; 2102EP cells, Mod Spec raw data, histone H4 K16 unmodified",50.8173 % of peptide pool
same,"H4: K20AC, % of peptide pool","[1]; 2102EP cells, Mod Spec raw data, histone H4 K20 acetylated",21.1654 % of peptide pool
same,"H4: K20ME2, % of peptide pool","[1]; 2102EP cells, Mod Spec raw data, histone H4 K20 dimethylated",54.2158 % of peptide pool
same,"H4: K20ME1, % of peptide pool","[1]; 2102EP cells, Mod Spec raw data, histone H4 K20 monomethylated",4.396 % of peptide pool
same,"H4: K20ME3, % of peptide pool","[1]; 2102EP cells, Mod Spec raw data, histone H4 K20 trimethylated",2.467 % of peptide pool
same,"H4: K20UN, % of peptide pool","[1]; 2102EP cells, Mod Spec raw data, histone H4 K20 unmodified",17.7556 % of peptide pool
same,change of histone modifications of the expected mode of action (Mod Spec),"[1]; 2102EP, EC50, 16 h, vs solvent control",increase in H3K64ac and H2A3K15ac
same,5hmC levels increase compared to solvent control,[2],19%
same,5mC levels compared to solvent control,[2]; solvent control set to 100%,70%
same,apoptosis induction in 2102EP-R,2102EP-R [3],did not induce apoptosis
same,cell cycle arrest in 2102EP-R,2102EP-R [4],induced a cell cycle arrest
same,cell cycle phase accumulation in GCT cells,GCT cells,accumulated in the G0/G1 phase
same,EIF3CL Log2 fold change vs. DMSO,"[5]; sorted data log2>±1.5, FDR p<0.05",-2.31
same,A1BG Log2 fold change vs. DMSO,[5]; unsorted data,-0.0752
same,A1CF Log2 fold change vs. DMSO,[5]; unsorted data,-1.99
same,A2M Log2 fold change vs. DMSO,[5]; unsorted data,0.0948
same,"CREB, STAT3 and STAT5 phosphorylation and total levels of β-Catenin and HSP60",[6],decreased
same,ERK1/2 phosphorylation,[6],decreased

# From PMC8742467, “Therapeutical interference with the epigenetic landscape of germ cell tumors: a comparative drug study and new mechanistical insights” (Clinical Epigenetics, 2022)
